US10960005B2, “Treatment of relapsed and/or refractory solid tumors and non-hodgkin's lymphomas” (CELGENE QUANTICEL RESEARCH, INC., priority 2016, dated 2021)
Where two headings read alike, the source gives them in different places.

Experiments:
LNCaP cells = assay: LNCaP cell proliferation with DHT and irradiation; type: cell-based, human; conditions: 100 nM Compound A + 10 nM DHT + 2Gy irradiation vs DHT with irradiation or DHT with Compound A; 220 hours
Experimental: LNCaP cells are androgen-sensitive human prostate adenocarcinoma cells. […] The proliferation of the LNCap cells was monitored for 220 hours.

[1] = 4-week toxicity study (no recovery period) in dogs (QW/Q2W); type: in vivo; conditions: for AUC0-96 / Cmax: Dogs
Excerpt: All animals survived to the terminal sacrifice.

[2] = tested on: ST18 and FREM2 expression in MS-1 tumors; assay: In vivo xenograft dose-response of PD biomarker gene expression, MS-1; set-up: species or system mice; conditions: 1, 2.5, or 5 mg/kg PO BID ×4.5; tumors 4 h after last dose
Excerpt: Female NSG mice bearing palpable hMCC MKL-1 and MS-1 tumors were randomized into four groups of three mice each. […] The fourth group was orally administered vehicle as a control on the BID schedule. Four hours after the last dosing, tumors were collected into RNA later and stored frozen.
Total RNA was eluted in RNase-free water and analyzed by qRT-PCR.

[3] = tested on: LU1480 SCLC patient-derived xenograft; assay: Efficacy in LU1480 HuPrime SCLC PDX model; type: in vivo, mice
[4] = tested on: LXFS 1129 SCLC patient-derived xenograft
NCI-H1417 SCLC xenograft [5] = type: in vivo
NCI-H841 SCLC cell line = assay: Antiproliferative activity, NCI-H841; type: cell-based, human; conditions: 3D assay; Calcein AM
[6] = tested on: LXFS 573 SCLC patient-derived xenograft; type: in vivo
[7] = tested on: GA0087 gastric NEC patient-derived xenograft; assay: Efficacy in GA0087 gastric neuroendocrine carcinoma PDX model; conditions: for Median Tumor Volumes Day 46: head prints Day 46, title Day 53
[8] = tested on: H3K4me2 at ST18 and FREM2 gene loci in MKL-1 cells; assay: ChIP-seq LSD1 occupancy and H3K4me2 status, MKL-1; type: cell-based, human; conditions: 100 nM, 3 days
[9] = tested on: LXFS 573 SCLC patient-derived xenograft; assay: Efficacy in LXFS 573 SCLC PDX model; type: in vivo, mice; conditions: for % TGI / TGI: Day 28
[10] = tested on: LXFS 2156 SCLC patient-derived xenograft; assay: Efficacy in LXFS 2156 SCLC PDX model; type: in vivo, mice; conditions: 5 mg base/kg orally QD×23
[11] = tested on: H3K4me2 at ST18 and FREM2 gene loci in MS-1 cells; assay: ChIP-seq LSD1 occupancy and H3K4me2 status, MS-1; type: cell-based, human; conditions: 100 nM, 3 days
MS-1 hMCC xenograft = assay: Efficacy in MS-1 hMCC xenograft (NSG mice); type: in vivo; conditions: 5 mg/kg PO 5 on/2 off; head prints Day-15, TGI analysis on Day 36
NCI-H1417 SCLC xenograft [12] = conditions: for Median Tumor Volumes Diff.: Day 0 vs Day 65
[13] = tested on: LXFS 615 SCLC patient-derived xenograft; conditions: 5 mg base/kg; plasma after final dose
[14] = tested on: Salmonella typhimurium TA98 and TA100 strains; assay: Bacterial reverse mutation assay; type: cell-based; conditions: up to 500 μg/mL; in presence and absence of S9
NCI-H69 SCLC cell line = assay: Antiproliferative activity, NCI-H69; type: cell-based, human; conditions: 3D assay; Calcein AM
MKL-1 hMCC cells = assay: hMCC cell proliferation inhibition (2D, CellTiter-Glo), MKL-1; type: cell-based, human; conditions: MKL-1, 2D format, 7 days
Experimental: MKL-1 hMCC cells were cultured in vitro in RPMI-1640 culture medium (Life Technologies, Carlsbad, Calif.) containing 100 units/mL penicdlin G sodium and 100 μg/mL streptomycin sulfate (cRPMI) supplemented with 10% fetal bovine serum (FBS). MS-1 hMCC cells were cultured in vitro in cRPMI supplemented with 20% FBS.
Four to six replicates were performed at each concentration.

[15] = QW 1.25 mg oral dose, 60-kg human, 80% oral bioavailability assumed
[16] = tested on: LU2527 lung NEC patient-derived xenograft; assay: Efficacy in LU2527 lung neuroendocrine carcinoma PDX model; conditions: 5 mg base/kg PO QD; Day 46
[17] = Day 1, 0.125 mg base/kg/dose oral QW, Sexes Combined
[18] = Day 1, 0.25 mg base/kg/dose oral QW, M
[19] = Day 1, 0.5 mg base/kg/dose oral Q2W, M
[20] = Day 15, 0.125 mg base/kg/dose oral QW, F
[21] = Day 15, 0.125 mg base/kg/dose oral QW, M
[22] = Day 15, 0.125 mg base/kg/dose oral QW, Sexes Combined
[23] = Compound A monotherapy 5 mg/kg PO 5 on/2 off
[24] = etoposide 24 mg/kg SC QD×3 followed by Compound A 5 mg/kg PO 5 on/2 off
[25] = Compound A 1 mg/kg in combination with etoposide 24 mg/kg

## COc1ccc(-c2c(-c3ccc(C#N)c(F)c3)nc(N3CCC(N)CC3)n(C)c2=O)cc1F [Compound A]
LNCaP cells
  LNCaP cell proliferation: significantly inhibits LNCaP cell proliferation
[1]; 0.125 mg base/kg/dose QW
  combined Day 15 mean AUC: 127 ng·h/mL
  combined Day 15 mean Cmax: 5.26 ng/mL
[1]; 0.25 mg base/kg/dose QW
  combined Day 15 mean AUC: 287 ng·h/mL
  combined Day 15 mean Cmax: 11.0 ng/mL
[1]; 0.5 mg base/kg/dose Q2W
  combined Day 15 mean AUC: 636 ng·h/mL
  combined Day 15 mean Cmax: 22.0 ng/mL
[1]; Day 1, 0.125 mg base/kg/dose oral QW, F
  AUC0-96: 127 ng·h/mL
[1]; [17]
  AUC0-96: 120 ng·h/mL
  Cmax: 5.79 ng/mL
[1]; [18]
  AUC0-96: 335 ng·h/mL
  Cmax: 11.9 ng/mL
[1]; Day 1, 0.25 mg base/kg/dose oral QW, Sexes Combined
  Cmax: 12.0 ng/mL
[1]; Day 1, 0.5 mg base/kg/dose oral Q2W, F
  Cmax: 26.6 ng/mL
[1]; [19]
  AUC0-96: 762 ng·h/mL
  Cmax: 24.0 ng/mL
[1]; Day 1, 0.5 mg base/kg/dose oral Q2W, Sexes Combined
  Cmax: 25.3 ng/mL
[1]; [20]
  AUC0-96: 141 ng·h/mL
  Cmax: 5.54 ng/mL
[1]; [21]
  AUC0-96: 107 ng·h/mL
  Cmax: 4.89 ng/mL
[1]; [22]
  AUC0-96: 127 ng·h/mL
  Cmax: 5.26 ng/mL
[1]; Day 15, 0.25 mg base/kg/dose oral QW, Sexes Combined
  Cmax: 11.0 ng/mL
[1]; Day 15, 0.5 mg base/kg/dose oral Q2W, Sexes Combined
  Cmax: 22.0 ng/mL
[1]; single female, 0.25 mg base/kg/dose QW
  treatment-related adverse finding: Moderate acute inflammation in the ileum and marked acute inflammation in the cecum
[2]
  ST18 and FREM2 change in gene expression in vivo: ≥ 2 fold
[3]; 10 mg base/kg PO QD × 21
  % TGI: 72%
[3]; 10 mg base/kg orally for 15 days (second LU1480 experiment)
  TGI: 46%
[4]; 1.5 mg base/kg
  AUC0-24: 243 ng·h/mL
[4]; 5 mg base/kg
  AUC0-24: 1,262 ng·hr/mL
[4]; mouse, in vivo
  mean body weight losses: < 6%
NCI-H1417 SCLC xenograft [5]; [23]
  % TGD: 335%
  TGD: 87 days
  median TTE: 113 days
NCI-H1417 SCLC xenograft [5]; [24]
  % TGD: 435%
  TGD: 113 days
  median TTE: 139 days
NCI-H841 SCLC cell line
  IC50: > 500 µM
[6]; [25]
  % TGD: 38%
  TGD: 16 days
  median TTE: 59 days
[6]; Compound A 1 mg/kg in combination with etoposide 24 mg/kg, of eight
  survivors on Day 133: 1
[6]; Compound A 2.5 mg/kg in combination with etoposide 24 mg/kg
  TGD: 79 days
[6]; Compound A 2.5 mg/kg in combination with etoposide 24 mg/kg, of eight
  survivors on Day 133: 3
[6]; Compound A 5 mg/kg in combination with etoposide 24 mg/kg
  TGD: 91 days
[6]; Compound A 5 mg/kg in combination with etoposide 24 mg/kg, of eight
  survivors on Day 133: 8
[6]; Compound A monotherapy 5 mg/kg, of eight
  study survivors on Day 133: seven
[7]; 1.5 mg base/kg PO QD × 53
  Median Tumor Volumes Day 46: 706.4 mm^3
[7]; 5 mg base/kg PO QD × 53
  Median Tumor Volumes Diff.: 836.3 mm^3
  Median Tumor Volumes Day 46: 673.2 mm^3
[8]
  H3K4me2 at the LSD1 binding site of FREM2 gene: increased H3K4me2
  H3K4me2 at the LSD1 binding site of ST18 gene: increased H3K4me2
[9]; 5 mg base/kg PO QD × 28
  % TGI: 72%
[9]; 5 mg base/kg oral
  TGI: 78%
[9]; 7.5 mg base/kg oral
  TGI: 58%
[9]; 10 mg base/kg PO QD × 28
  % TGI: 71%
[9]; 10 mg/kg oral
  TGI: 71%
[9]; mouse, in vivo
  mean body weight losses: ≤ 3%
[10]
  TGI: −7%
[11]
  H3K4me2 at the LSD1 binding site of ST18 gene: increased H3K4me2
MS-1 hMCC xenograft
  Median Tumor Volumes Day-15: 129 mm^3
NCI-H1417 SCLC xenograft [12]; 2.5 mg base/kg
  mean body weight gain by end of study: 1%
NCI-H1417 SCLC xenograft [12]; 2.5 mg base/kg PO QD × 65
  Median Tumor Volumes Diff.: 69.9 mm^3
NCI-H1417 SCLC xenograft [12]; 5 mg base/kg
  mean body weight gain by end of study: 7.5%
NCI-H1417 SCLC xenograft [12]; 5 mg base/kg PO QD × 65
  Median Tumor Volumes Diff.: 92.3 mm^3
[13]
  AUC0-24: 1,617 ng·hr/mL
[14]
  mutagenicity: negative for mutagenicity
NCI-H69 SCLC cell line
  IC50: 7 µM
MKL-1 hMCC cells
  IC50: 18.4 nM
[15]
  predicted steady state systemic exposure (AUCt): 29 ng·h/mL
[16]
  % TGI: 84%
